Series [1] deals with WEEV replicon. As to the kind of experiment: microbe, parasite or virus in culture. As to conditions: Western equine encephalitis virus, BSR-T7, read-out: IC50, inhibition of luciferase expression in the WEEV replicon assay. For orientation: In antiviral work, replicon cells carry a viral genome segment that copies itself.
For series [2], the system named is WEEV replicon.
A short description of series [3]: Parallel Artificial Membrane Permeability Assay. As to conditions: PAMPA. A general note: The PAMPA barrier holds no transporters, so it reflects passive diffusion.
The subject of series [4] is WEEV. It counts as cell-based, western equine encephalitis virus.
The next series in a line: Mouse liver microsome. As to conditions: Balb-C, liver microsomes, pH 7.5.
The test system of series [5] is NSV. It counts as cell-based, neuroadapted Sindbis virus.
In series [6] the test system is WEEV. It counts as cell-based, western equine encephalitis virus. This is another data set of the same source.
In series [7] the test system is NSV. The class given is cell-based, neuroadapted Sindbis virus. This is another data set of the same source.
Series [8] concerns NSV. Further details: species or system mice. As to conditions: mouse, in vivo.
For series [9], the system named is NSV. Further details: species or system mice. As to conditions: mouse, in vivo. This is another data set of the same source.
For series [10], the system named is NSV. Set-up: species or system mice. As to conditions: mouse, in vivo. This is another data set of the same source.
A further series relates to wild-type VEEV. As to conditions: in vivo; cited from earlier work.
Series [11] concerns vaccine strain of Venezuelan equine encephalitis virus (VEEV). As to conditions: mouse, in vivo; cited from earlier work.

A value given as a limit tells only on which side of the number the result lay.

One may read the IC50 as the midpoint of a concentration-inhibition curve. For the molecule `O=C(NCc1ccccc1)C1CCN(C(=O)c2cc3sccc3n2Cc2ccc(F)cc2)CC1` [Compound 5a, N-benzyl-1-(4-(4-fluorobenzyl)-4H-thieno[3,2-b]pyrrole-5-carbonyl)piperidine-4-carboxamide], the IC50 in the series on WEEV replicon [1] was 25.4 ± 7.3 µM. Besides, the “CC50/IC50 (therapeutic index)” value with WEEV replicon [2] is reported as over 3.9.
Usually Papp stands for a coefficient for how fast a substance crosses the barrier. What is called half-life is how long it takes for the measured level to halve. Lower therefore signals fast loss. As for `O=C(NCc1ccccc1)C1CCN(C(=O)c2cc3sccc3n2Cc2ccc(Cl)cc2)CC1` [Compound 5b, N-benzyl-1-(4-(4-chlorobenzyl)-4H-thieno[3,2-b]pyrrole-5-carbonyl)piperidine-4-carboxamide], in the series with WEEV replicon [1], the IC50 was 10.1 ± 2.6 µM. Further, the apparent permeability (Papp) in series [3] was 251 ×10⁻⁶ cm/s. In the series on WEEV replicon [2], the “CC50/IC50 (therapeutic index)” value is over 9.9. In addition, the “WEEV titers (virion production, plaque assay)” value (from here on “WEEV titers”) in the series on WEEV [4] was “significantly reduced”. The half-life at 1 µM in the series “Mouse liver microsome” is 1.7 ± 1.7 min. For the same molecule, in the series with NSV [5], the “NSV titers (virion production, plaque assay)” value (“NSV titers” for short) is on record as “significantly reduced”.
Take `C[C@H](NC(=O)C1CCN(C(=O)c2cc3sccc3n2Cc2ccc(F)cc2)CC1)c1ccccc1` [Compound 5c, (S)-1-(4-(4-fluorobenzyl)-4H-thieno[3,2-b]pyrrole-5-carbonyl)-N-(1-phenylethyl)piperidine-4-carboxamide]: the half-inhibitory concentration (IC50) in the series on WEEV replicon [1] was over 100 µM.
As to `C[C@@H](NC(=O)C1CCN(C(=O)c2cc3sccc3n2Cc2ccc(F)cc2)CC1)c1ccccc1` [Compound 5d, (R)-1-(4-(4-fluorobenzyl)-4H-thieno[3,2-b]pyrrole-5-carbonyl)-N-(1-phenylethyl)piperidine-4-carboxamide], in the series on WEEV replicon [1], the IC50 came to 8.3 ± 1.3 µM. Also, the “CC50/IC50 (therapeutic index)” value in the series with WEEV replicon [2] was determined as 11.
For `C[C@H](c1ccc(F)cc1)n1c(C(=O)N2CCC(C(=O)NCc3ccccc3)CC2)cc2sccc21` [Compound 5e, (R)-N-benzyl-1-(4-(1-(4-fluorophenyl)ethyl)-4H-thieno[3,2-b]pyrrole-5-carbonyl)piperidine-4-carboxamide], the 50% inhibitory concentration (IC50) in the series with WEEV replicon [1] came out at 18.4 ± 4.7 µM. In addition, the “CC50/IC50 (therapeutic index)” value in the series on WEEV replicon [2] is listed as over 5.4.
As for `C[C@@H](c1ccc(F)cc1)n1c(C(=O)N2CCC(C(=O)NCc3ccccc3)CC2)cc2sccc21` [Compound 5f, (S)-N-benzyl-1-(4-(1-(4-fluorophenyl)ethyl)-4H-thieno[3,2-b]pyrrole-5-carbonyl)piperidine-4-carboxamide], the IC50 with WEEV replicon [1] is over 100 µM.
As to `O=C(NCc1ccccc1)C1CCN(C(=O)c2cc3ccccc3n2Cc2ccc(F)cc2)CC1` [Compound 9a, N-benzyl-1-(1-(4-fluorobenzyl)-1H-indole-2-carbonyl)piperidine-4-carboxamide], the half-inhibitory concentration (IC50) in the series with WEEV replicon [1] was 14.8 ± 5.8 µM. The “CC50/IC50 (therapeutic index)” value in the series with WEEV replicon [2] is given as over 6.7.
With `O=C(NCc1ccccc1)C1CCN(C(=O)c2cc3ccccc3n2Cc2ccc(Cl)cc2)CC1` [Compound 9b, N-benzyl-1-(1-(4-chlorobenzyl)-1H-indole-2-carbonyl)piperidine-4-carboxamide], the half-maximal inhibitory concentration (IC50) in the series on WEEV replicon [1] worked out at 15.5 ± 5.6 µM. The “CC50/IC50 (therapeutic index)” value in the series with WEEV replicon [2] is listed as over 6.5. For the same molecule, the “WEEV titers” value with WEEV [4] is listed as “significantly reduced”. In the series “Mouse liver microsome”, this molecule returned a half-life at 1 µM of 7.3 ± 3.9 min. For the same molecule, the “NSV titers” value in the series with NSV [5] is on record as “significantly reduced”.
For the molecule `O=C(NCc1ccccc1)C1CCCN(C(=O)c2cc3ccccc3n2Cc2ccc(Cl)cc2)C1` (stereo not drawn) [Compound 9c, N-benzyl-1-(1-(4-chlorobenzyl)-1H-indole-2-carbonyl)piperidine-3-carboxamide], the IC50 in the series with WEEV replicon [1] turned out to be 30.6 ± 7.3 µM. In the series with WEEV replicon [2], the “CC50/IC50 (therapeutic index)” value is recorded as over 3.3.
Take `O=C(Nc1ccccc1)C1CCN(C(=O)c2cc3ccccc3n2Cc2ccc(Cl)cc2)CC1` [Compound 9d, 1-(1-(4-chlorobenzyl)-1H-indole-2-carbonyl)-N-phenylpiperidine-4-carboxamide]: the IC50 in the series on WEEV replicon [1] is over 50 µM.
On to `O=C(NCCc1ccccc1)C1CCN(C(=O)c2cc3ccccc3n2Cc2ccc(Cl)cc2)CC1` [Compound 9e, 1-(1-(4-chlorobenzyl)-1H-indole-2-carbonyl)-N-phenethylpiperidine-4-carboxamide], for which, in the series with WEEV replicon [1], the IC50 was 15.2 ± 9.3 µM. Moreover, the “CC50/IC50 (therapeutic index)” value in the series with WEEV replicon [2] is 4.1.
With `Cc1ccc(CCNC(=O)C2CCN(C(=O)c3cc4ccccc4n3Cc3ccc(Cl)cc3)CC2)cc1` [Compound 9f, 1-(1-(4-chlorobenzyl)-1H-indole-2-carbonyl)-N-(4-methylphenethyl)piperidine-4-carboxamide], the IC50 with WEEV replicon [1] was determined as 5.5 ± 2.2 µM. Besides, the “CC50/IC50 (therapeutic index)” value in the series with WEEV replicon [2] turned out to be 14.
Take `C[C@H](NC(=O)C1CCN(C(=O)c2cc3ccccc3n2Cc2ccc(Cl)cc2)CC1)c1ccccc1` [Compound 9g, (S)-1-(1-(4-chlorobenzyl)-1H-indole-2-carbonyl)-N-(1-phenylethyl)piperidine-4-carboxamide]: the concentration for half-maximal inhibition (IC50) in the series with WEEV replicon [1] was over 100 µM. Moreover, the “WEEV titers” value in the series with WEEV [4] is “inactive”. Moreover, the “Increase in cell viability after WEEV infection (reduction in CPE)” value in the series with WEEV [6] is “unable to rescue virus-induced CPE”. The “Increase in cell viability after NSV infection (reduction in CPE)” value in the series on NSV [7] is “unable to rescue virus-induced CPE”. Also, the “NSV titers” value in the series with NSV [5] is “inactive”.
As for `C[C@@H](NC(=O)C1CCN(C(=O)c2cc3ccccc3n2Cc2ccc(Cl)cc2)CC1)c1ccccc1` [Compound 9h, (R)-1-(1-(4-chlorobenzyl)-1H-indole-2-carbonyl)-N-(1-phenylethyl)piperidine-4-carboxamide], the IC50 with WEEV replicon [1] was 6.5 ± 1.5 µM. The “CC50/IC50 (therapeutic index)” value with WEEV replicon [2] came to 14. For the same molecule, the “Neuronal injury in hippocampus (proportion of fluorojade-positive neurons)” value with NSV [8] is on record as “reduced neuronal injury”. For the same molecule, the “WEEV titers” value in the series on WEEV [4] is “significantly reduced”. This molecule gave a half-life at 1 µM in “Mouse liver microsome” of 31 ± 7.1 min. Besides, in the series with NSV [9], the “Development of severe hind limb paralysis” value is “conferred benefit against the development of severe hind limb paralysis”; the “Pilot survival assays, dose comparison” value is listed as “the higher concentration was more effective”; the “Survival after lethal NSV infection” value is given as “significantly protected from lethal NSV infection”. Besides, the “NSV titers” value in the series with NSV [5] was “significantly reduced”. In addition, in the series with NSV [10], the “Viral titers in brain” value is “viral titers were lower” and the “Viral titers in spinal cord” value is “A similar extent of viral inhibition was also observed”.
`COc1ccc(CNC(=O)C2CCN(C(=O)c3cc4ccccc4n3Cc3ccc(Cl)cc3)CC2)cc1` [Compound 9i, 1-(1-(4-chlorobenzyl)-1H-indole-2-carbonyl)-N-(4-methoxybenzyl)piperidine-4-carboxamide]: the IC50 with WEEV replicon [1] is over 50 µM.
`O=C(NCc1cccc(Cl)c1)C1CCN(C(=O)c2cc3ccccc3n2Cc2ccc(Cl)cc2)CC1` [Compound 9j, N-(3-chlorobenzyl)-1-(1-(4-chlorobenzyl)-1H-indole-2-carbonyl)piperidine-4-carboxamide]: the IC50 in the series on WEEV replicon [1] was determined as 15.3 ± 9 µM. The “CC50/IC50 (therapeutic index)” value in the series with WEEV replicon [2] is listed as over 6.5.
The corresponding values for `O=C(c1cc2ccccc2n1Cc1ccc(Cl)cc1)N1CCC(C(=O)N2CCCCC2)CC1` [Compound 9k, (1-(4-chlorobenzyl)-1H-indol-2-yl)(4-(piperidine-1-carbonyl)piperidin-1-yl)methanone] are 9.2 ± 2.8 µM and 5.6.
The corresponding values for `O=C(NCc1ccncc1)C1CCN(C(=O)c2cc3ccccc3n2Cc2ccc(Cl)cc2)CC1` [Compound 9l, 1-(1-(4-chlorobenzyl)-1H-indole-2-carbonyl)-N-(pyridin-4-ylmethyl)piperidine-4-carboxamide] are 6.8 ± 1.7 µM and over 14.
`O=C(NCc1cccnc1)C1CCN(C(=O)c2cc3ccccc3n2Cc2ccc(Cl)cc2)CC1` [Compound 9m, 1-(1-(4-chlorobenzyl)-1H-indole-2-carbonyl)-N-(pyridin-3-ylmethyl)piperidine-4-carboxamide]: the IC50 with WEEV replicon [1] stood at 11.4 ± 0.4 µM. Further, the “CC50/IC50 (therapeutic index)” value in the series with WEEV replicon [2] was over 8.7.
Turning to `NC(=O)c1ncn([C@@H]2O[C@H](CO)[C@@H](O)[C@H]2O)n1` [Ribavirin, reference compound], in the series with WEEV replicon [1], the 50% inhibitory concentration (IC50) was 16 µM.
In the case of (−)-carbodine, the “Benefit after wild-type VEEV challenge” value with wild-type VEEV is “no benefit”. In addition, in series [11], the Disease outcome is listed as “improved outcome” and the “Lowering of peak CNS viral titers” value is on record as “half-log”.

The values are drawn from PMC3329717 (Journal of Medicinal Chemistry, 2012).
